According to patent US20250313563A1, “GLYCOGEN SYNTHASE KINASE 3 INHIBITORS AND USES THEREOF” (The Broad Institute, Inc., priority 2022, published 2025):
Like-named read-outs stand apart in the source and are kept apart here.

Tests used:
[1] = biological target: GSK3b (GST-full length GSK3b) (Homo sapiens (Human), UniProt P49841); experiment: GSK3b TR-FRET kinase assay; type: biochemical
Summary of the method: (§1)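 Readout: anti-pSer641 Tb antibody/streptavidin-d2 signal after 60 min, expressed as 665/615 ratio and fitted versus log concentration for IC50. Enzyme: 1 nM GST-GSK3 (α or β), compound-preincubated 30 min. Conditions: pH 7.5 Tris buffer with MgCl2, DTT, BSA; ATP at 4 or 2 μM, or 1 mM; 100 min.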

[2] = biological target: GSK3α (GST-full length GSK3α) (Homo sapiens (Human), UniProt P49840); experiment: GSK3α TR-FRET kinase assay; type: biochemical
Sequence of GSK3α (GST-full length GSK3α) (P49840 whole entry): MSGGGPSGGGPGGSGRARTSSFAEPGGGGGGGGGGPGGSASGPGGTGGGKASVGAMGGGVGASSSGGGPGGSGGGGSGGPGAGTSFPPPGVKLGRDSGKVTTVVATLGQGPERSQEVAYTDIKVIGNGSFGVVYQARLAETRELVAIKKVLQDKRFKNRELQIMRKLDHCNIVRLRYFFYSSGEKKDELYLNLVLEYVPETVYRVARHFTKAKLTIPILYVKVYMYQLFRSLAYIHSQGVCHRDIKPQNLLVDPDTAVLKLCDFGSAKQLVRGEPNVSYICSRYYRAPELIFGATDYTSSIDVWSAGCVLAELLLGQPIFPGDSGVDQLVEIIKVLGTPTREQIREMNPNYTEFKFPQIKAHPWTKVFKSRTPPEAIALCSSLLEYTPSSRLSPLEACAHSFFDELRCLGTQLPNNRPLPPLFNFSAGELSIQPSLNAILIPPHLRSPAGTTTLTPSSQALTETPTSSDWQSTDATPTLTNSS
Summary of the method: as §1

[3] = 1 nM GSK3b, 2 μM ATP, 30 minute preincubation, read-out: GSK3-B TR-FRET BIOCHEMICAL (TR-FRET), IC50
[4] = 1 nM GSK3α, 4 μM ATP, 30 minute preincubation, read-out: GSK3-A TR-FRET BIOCHEMICAL (TR-FRET), IC50
[5] = read-out: GSK3-B (TR-FRET 1 mM ATP), GMean, IC50, 1 mM ATP, geometric mean
[6] = read-out: GSK3-A (TR-FRET 1 mM ATP), GMean, IC50, 1 mM ATP, geometric mean
[7] = 1 nM GSK3b, 2 μM ATP, 30 minute preincubation, Table 16, read-out: GSK3-B TR-FRET BIOCHEMICAL (TR-FRET)
[8] = 1 nM GSK3α, 4 μM ATP, 30 minute preincubation, Table 16, read-out: GSK3-A TR-FRET BIOCHEMICAL (TR-FRET)

Sequence of GSK3b (GST-full length GSK3b) (P49841 whole entry): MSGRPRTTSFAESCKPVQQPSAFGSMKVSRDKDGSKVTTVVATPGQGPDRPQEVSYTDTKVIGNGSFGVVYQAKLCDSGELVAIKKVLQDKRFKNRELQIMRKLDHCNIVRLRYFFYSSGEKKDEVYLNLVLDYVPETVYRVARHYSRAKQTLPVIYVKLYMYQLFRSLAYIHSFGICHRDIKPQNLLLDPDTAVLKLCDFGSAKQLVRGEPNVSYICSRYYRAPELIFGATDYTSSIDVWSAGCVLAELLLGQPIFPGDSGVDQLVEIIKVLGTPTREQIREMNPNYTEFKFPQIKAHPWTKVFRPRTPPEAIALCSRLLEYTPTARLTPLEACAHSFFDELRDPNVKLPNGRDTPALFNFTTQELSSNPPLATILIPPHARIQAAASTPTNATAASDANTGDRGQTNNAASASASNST

Row | SMILES | IC50 [1, 3] [nM] | IC50 [2, 4] [nM] | IC50 [1, 5] [nM] | IC50 [2, 6] [nM] | IC50 [1, 7] [nM] | IC50 [2, 8] [nM]
1 | CC1(C)CC(=O)C2=C(C1)Nc1n[nH]cc1C21COC2(CN(C(=O)C3CCCCC3)C2)C1 (stereo not drawn) [Compound 947291] | 100 to 1000 | ≤ 100 |  |  |  | 
2 | CC1(C)CC(=O)C2=C(C1)Nc1n[nH]cc1C21COC2(CN(C(=O)c3ccc(F)cc3)C2)C1 (stereo not drawn) [Compound 947292] | ≤ 100 | ≤ 100 |  |  |  | 
3 | CC1(C)CC(=O)C2=C(C1)Nc1n[nH]cc1C21COC2(CN(C(=O)CC3CCCC3)C2)C1 (stereo not drawn) [Compound 947293] | ≤ 100 | ≤ 100 |  |  |  | 
4 | Cc1ccccc1CC(=O)N1CC2(C1)CC1(CO2)C2=C(CC(C)(C)CC2=O)Nc2n[nH]cc21 (stereo not drawn) [Compound 947295] | ≤ 100 | ≤ 100 |  |  |  | 
5 | Cc1cc(C)cc(C(=O)N2CC3(C2)CC2(CO3)C3=C(CC(C)(C)CC3=O)Nc3n[nH]cc32)c1 (stereo not drawn) [Compound 947296] | ≤ 100 | ≤ 100 |  |  |  | 
6 | CC1(C)CC(=O)C2=C(C1)Nc1n[nH]cc1C21COC2(CN(C(=O)C3CC3)C2)C1 (stereo not drawn) [Compound 947297] | ≤ 100 | ≤ 100 |  |  |  | 
7 | CC1(C)CC(=O)C2=C(C1)Nc1n[nH]cc1C21COC2(CN(C(=O)CC3CCC3)C2)C1 (stereo not drawn) [Compound 947299] | ≤ 100 | ≤ 100 |  |  |  | 
8 | CCCC(=O)N1CC2(C1)CC1(CO2)C2=C(CC(C)(C)CC2=O)Nc2n[nH]cc21 (stereo not drawn) [Compound 947300] | ≤ 100 | ≤ 100 |  |  |  | 
9 | CC(C)CC(=O)N1CC2(C1)CC1(CO2)C2=C(CC(C)(C)CC2=O)Nc2n[nH]cc21 (stereo not drawn) [Compound 947302] | ≤ 100 | ≤ 100 |  |  |  | 
10 | CC1(C)CC(=O)C2=C(C1)Nc1n[nH]cc1C21COC2(CN(C(=O)C(C)(C)C)C2)C1 (stereo not drawn) [Compound 947303] | ≤ 100 | ≤ 100 |  |  |  | 
11 | CC1(C)CC(=O)C2=C(C1)Nc1n[nH]cc1C21COC2(CN(C(=O)CC3CCCCC3)C2)C1 (stereo not drawn) [Compound 947305] | ≤ 100 | ≤ 100 |  |  |  | 
12 | CC[C@]1(c2cccc(-c3ccncc3C)c2)C2=C(CC(C)(C)CC2=O)Nc2n[nH]c(C(F)(F)F)c21 [Compound 947324] |  |  | ≤ 100 | ≤ 100 | ≤ 100 | ≤ 100
13 | CC[C@]1(c2cccc(-c3ccncc3F)c2)C2=C(CC(C)(C)CC2=O)Nc2n[nH]c(C(F)(F)F)c21 [Compound 947326] |  |  | ≤ 100 | ≤ 100 | ≤ 100 | ≤ 100
14 | CCC1(c2cccc(-c3ccnc(C)c3C)c2)C2=C(CC(C)(C)CC2=O)Nc2n[nH]c(C(F)(F)F)c21 (stereo not drawn) [Compound 947329] |  |  | ≤ 100 | ≤ 100 | ≤ 100 | ≤ 100
15 | CCC1(c2cccc(C(F)(F)F)c2)C2=C(CCN(c3ccc(OC)cc3)C2=O)Nc2n[nH]cc21 (stereo not drawn) [Compound 947332] | 100 to 1000 | ≤ 100 |  |  |  | 

The next lines start with the values.

Row | IC50 [1, 3] [nM] | IC50 [2, 4] [nM] | IC50 [1, 5] [nM] | IC50 [2, 6] [nM] | IC50 [1, 7] [nM] | IC50 [2, 8] [nM] | SMILES
16 | 100 to 1000 | ≤ 100 |  |  |  |  | Cc1ccc(C(=O)N2CC3(C2)CC2(CO3)C3=C(CC(C)(C)CC3=O)Nc3n[nH]cc32)c(C)c1 (stereo not drawn) [Compound 947294]
17 | ≤ 100 | ≤ 100 |  |  |  |  | CC1(C)CC(=O)C2=C(C1)Nc1n[nH]cc1C21COC2(CN(C(=O)CC3CC3)C2)C1 (stereo not drawn) [Compound 947298]
18 | 1000 to 5000 | 100 to 1000 |  |  |  |  | CC(C)(C)CC(=O)N1CC2(C1)CC1(CO2)C2=C(CC(C)(C)CC2=O)Nc2n[nH]cc21 (stereo not drawn) [Compound 947301]
19 | 100 to 1000 | ≤ 100 |  |  |  |  | CC(C)C(=O)N1CC2(C1)CC1(CO2)C2=C(CC(C)(C)CC2=O)Nc2n[nH]cc21 (stereo not drawn) [Compound 947304]
20 | ≤ 100 | ≤ 100 | ≤ 100 | ≤ 100 |  |  | CC1(C)CC(=O)C2=C(C1)Nc1n[nH]cc1C21COC2(CN(C(=O)Cc3ccccc3)C2)C1 (stereo not drawn) [Compound 947306]
21 | ≤ 100 | ≤ 100 |  |  |  |  | CC1(C)CC(=O)C2=C(C1)Nc1n[nH]cc1C21COC2(CN(C(=O)C3(C)CCCC3)C2)C1 (stereo not drawn) [Compound 947307]
22 | 100 to 1000 | ≤ 100 |  |  |  |  | CC1(C)CC(=O)C2=C(C1)Nc1n[nH]cc1C21COC2(CN(C(=O)C3CCCCCC3)C2)C1 (stereo not drawn) [Compound 947308]
23 |  |  |  |  | 100 to 1000 | 100 to 1000 | CCC1(c2cccc(-c3ccnc(C)c3C)c2)C2=C(CC(C)(C)CC2=O)Nc2n[nH]c(C(F)(F)F)c21 (stereo not drawn) [Compound 947328]
